# Test results as given in ChEMBL document CHEMBL1134943, “Synthesis and biological activity of retinoic acid receptor-alpha specific amides” (Bioorg Med Chem Lett, 2002).
# Numbering of substitutions follows the chain as printed. Activity calls are given as the source filed them. No cut-off for these calls is given here.
# Legend:
# [1] = molecular target: T1, Retinoic acid receptor beta (Homo sapiens) (UniProt P10826); test: Percent transcriptional activation of RAR beta compared to […]; assay type: functional
# T1 sequence (whole entry): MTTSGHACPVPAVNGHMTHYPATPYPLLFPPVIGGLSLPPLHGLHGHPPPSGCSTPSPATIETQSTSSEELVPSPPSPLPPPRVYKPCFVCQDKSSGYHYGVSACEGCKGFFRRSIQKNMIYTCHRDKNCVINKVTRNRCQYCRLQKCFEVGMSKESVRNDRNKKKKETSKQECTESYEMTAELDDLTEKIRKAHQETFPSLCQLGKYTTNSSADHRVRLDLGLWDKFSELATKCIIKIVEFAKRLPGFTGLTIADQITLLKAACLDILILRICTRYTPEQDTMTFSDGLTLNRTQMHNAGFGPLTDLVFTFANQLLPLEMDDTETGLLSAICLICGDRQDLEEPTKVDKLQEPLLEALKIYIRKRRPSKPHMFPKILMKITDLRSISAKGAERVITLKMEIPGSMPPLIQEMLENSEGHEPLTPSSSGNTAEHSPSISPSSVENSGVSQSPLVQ
# [2] = molecular target: T2, Retinoic acid receptor alpha (Mus musculus) (UniProt P11416); test: Topical irritation induced by RAR alpha-selective retinoid Am-580 in mice; assay type: functional
# T2 sequence (whole entry): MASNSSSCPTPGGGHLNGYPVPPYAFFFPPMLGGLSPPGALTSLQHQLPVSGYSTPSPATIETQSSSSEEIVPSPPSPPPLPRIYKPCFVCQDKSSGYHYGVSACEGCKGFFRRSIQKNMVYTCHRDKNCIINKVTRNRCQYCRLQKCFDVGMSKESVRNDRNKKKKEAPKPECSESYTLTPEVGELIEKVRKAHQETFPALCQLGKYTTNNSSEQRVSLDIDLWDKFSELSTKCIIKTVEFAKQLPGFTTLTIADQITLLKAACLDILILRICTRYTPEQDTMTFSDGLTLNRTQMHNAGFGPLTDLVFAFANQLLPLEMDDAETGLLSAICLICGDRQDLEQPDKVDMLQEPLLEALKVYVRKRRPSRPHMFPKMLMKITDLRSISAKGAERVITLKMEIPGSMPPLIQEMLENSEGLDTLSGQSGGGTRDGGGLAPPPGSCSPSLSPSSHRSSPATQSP
# [3] = molecular target: T3, Retinoic acid receptor gamma (Homo sapiens) (UniProt P13631); test: Percent transcriptional activation of RAR gamma compared to 1 µM ATRA
# T3 sequence (whole entry): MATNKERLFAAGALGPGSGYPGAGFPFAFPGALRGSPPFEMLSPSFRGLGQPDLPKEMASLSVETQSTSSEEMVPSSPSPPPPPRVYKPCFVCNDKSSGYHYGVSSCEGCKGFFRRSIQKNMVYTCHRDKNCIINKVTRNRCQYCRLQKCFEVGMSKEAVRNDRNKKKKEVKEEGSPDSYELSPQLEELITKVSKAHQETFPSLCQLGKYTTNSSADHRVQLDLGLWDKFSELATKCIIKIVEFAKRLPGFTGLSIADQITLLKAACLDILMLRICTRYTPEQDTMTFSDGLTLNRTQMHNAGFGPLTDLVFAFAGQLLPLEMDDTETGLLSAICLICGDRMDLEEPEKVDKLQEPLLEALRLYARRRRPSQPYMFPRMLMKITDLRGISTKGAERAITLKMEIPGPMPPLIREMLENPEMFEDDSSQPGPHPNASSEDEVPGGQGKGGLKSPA
# [4] = molecular target: T4, Retinoic acid receptor alpha (Homo sapiens, UniProt P10276); test: Binding affinity fo retinoic acid receptor RAR alpha
# T4 sequence (P10276 whole entry): T2 sequence (whole entry) with S43T, D150E, A169V, K347R, S427P, T431G, H453N, Q460H
# [5] = molecular target: T4, Retinoic acid receptor alpha; test: Effective concentration for retinoic acid receptor RAR alpha transcriptional activation; assay type: functional
# [6] = molecular target: T5, Retinoic acid receptor beta (Homo sapiens, UniProt P10826); test: Binding affinity for retinoic acid receptor RAR beta
# T5 sequence (P10826 whole entry): T1 sequence (whole entry)
# [7] = molecular target: T5, Retinoic acid receptor beta; test: Effective concentration for retinoic acid receptor RAR beta transcriptional activation; assay type: functional
# [8] = molecular target: T6, Retinoic acid receptor gamma (Homo sapiens, UniProt P13631); test: Binding affinity for retinoic acid receptor RAR gamma
# T6 sequence (P13631 whole entry): T3 sequence (whole entry)
# [9] = molecular target: T6, Retinoic acid receptor gamma; test: Effective concentration for retinoic acid receptor RAR gamma transcriptional activation; assay type: functional
# [10] = molecular target: T3, Retinoic acid receptor gamma (Homo sapiens); details: 1 mM
# SK-BR-3 [11] = test: Inhibition of ER-negative human breast cancer cell SK-BR-3 proliferation; assay type: functional, cell-based
# SK-BR-3 [12] = test: Percent inhibition of BrdU incorporation into SK-BR-3 cells; assay type: functional, Homo sapiens
# T47D [13] = test: Percent inhibition of BrdU incorporation into T-47D cells; assay type: functional, Homo sapiens
# T47D [14] = test: Inhibition of ER positive human breast cancer cell T-47D proliferation; assay type: functional, cell-based
# [15] = molecular target: T1, Retinoic acid receptor beta (Homo sapiens); test: Percent transcriptional activation of RAR beta compared to […]; NA indicates […]; assay type: functional
# [16] = molecular target: T7, Retinoic acid receptor alpha (Homo sapiens) (UniProt P10276); test: Percent transcriptional activation of RAR alpha compared to […]; assay type: functional
# T7 sequence (whole entry): T2 sequence (whole entry) with S43T, D150E, A169V, K347R, S427P, T431G, H453N, Q460H
smiles,measurement,setting,value
CC1(C)CCC(C)(C)c2cc(C(=O)Nc3ccc(C(=O)O)cc3)ccc21,Efficacy,[1],105%
same,Topical irritation score(0-21),[2],16
same,Efficacy,[3],80%
CC1(C)CCC(C)(C)c2cc(C(=O)Nc3ccc(C(=O)O)c(F)c3)ccc21,Kd,[4],2 nM
same,EC50,[5],8 nM
same,Efficacy,[1],78%
same,Kd,[6],380 nM
same,EC50,[7],45 nM
same,Kd,[8],990 nM
same,EC50,[9],350 nM
same,Efficacy,[3],85%
CC1(C)CCC(C)(C)c2cc(C(=O)Nc3cc(F)c(C(=O)O)c(F)c3)c(O)cc21,Kd,[4],3 nM
same,EC50,[5],112 nM
same,Efficacy,[1],10%
same,Kd,[6],> 100000 nM
same,EC50,[7],> 1000 nM
same,Kd,[8],5600 nM
same,EC50,[9],> 1000 nM
same,Efficacy,[3],10%
CC1(C)CCC(C)(C)c2cc(C(=O)Nc3cc(F)c(C(=O)O)c(F)c3)ccc21,Kd,[4],7 nM
same,EC50,[5],94 nM
same,Efficacy,[1],25%
same,Kd,[6],1470 nM
same,EC50,[7],> 1000 nM
same,Kd,[8],5600 nM
same,Efficacy,[10],inactive
CC1=C(/C=C/C(C)=C/C=C/C(C)=C/C(=O)O)C(C)(C)CCC1 [TRETINOIN],IC50,SK-BR-3 [11],1.7 nM
same,Efficacy,SK-BR-3 [12],99%
same,Efficacy,T47D [13],74%
same,IC50,T47D [14],200 nM
CC1(C)CCC(C)(C)c2c1cc(C(=O)Nc1cc(F)c(C(=O)O)c(F)c1)c(O)c2Br,Kd,[4],4 nM
same,EC50,[5],290 nM
same,Efficacy,[15],inactive
same,Kd,[6],6400 nM
same,Kd,[8],> 100000 nM
same,Efficacy,[10],inactive
CC1(C)CCC(C)(C)c2c1cc(C(=O)Nc1cc(F)c(C(=O)O)c(F)c1)c(O)c2Cl [NRX195183],Kd,[4],3 nM
same,EC50,[5],200 nM
same,Efficacy,[16],80%
same,Efficacy,[15],inactive
same,Kd,[6],> 100000 nM
same,Kd,[8],> 100000 nM
same,Topical irritation score(0-21),[2],0
same,IC50,SK-BR-3 [11],11 nM
same,Efficacy,SK-BR-3 [12],93%
same,Efficacy,T47D [13],57%
same,IC50,T47D [14],1.4 nM
same,Efficacy,[10],inactive
